Assay [1] deals with T1, DNA topoisomerase 1 (Homo sapiens) (UniProt P11387).
T1 sequence (whole entry): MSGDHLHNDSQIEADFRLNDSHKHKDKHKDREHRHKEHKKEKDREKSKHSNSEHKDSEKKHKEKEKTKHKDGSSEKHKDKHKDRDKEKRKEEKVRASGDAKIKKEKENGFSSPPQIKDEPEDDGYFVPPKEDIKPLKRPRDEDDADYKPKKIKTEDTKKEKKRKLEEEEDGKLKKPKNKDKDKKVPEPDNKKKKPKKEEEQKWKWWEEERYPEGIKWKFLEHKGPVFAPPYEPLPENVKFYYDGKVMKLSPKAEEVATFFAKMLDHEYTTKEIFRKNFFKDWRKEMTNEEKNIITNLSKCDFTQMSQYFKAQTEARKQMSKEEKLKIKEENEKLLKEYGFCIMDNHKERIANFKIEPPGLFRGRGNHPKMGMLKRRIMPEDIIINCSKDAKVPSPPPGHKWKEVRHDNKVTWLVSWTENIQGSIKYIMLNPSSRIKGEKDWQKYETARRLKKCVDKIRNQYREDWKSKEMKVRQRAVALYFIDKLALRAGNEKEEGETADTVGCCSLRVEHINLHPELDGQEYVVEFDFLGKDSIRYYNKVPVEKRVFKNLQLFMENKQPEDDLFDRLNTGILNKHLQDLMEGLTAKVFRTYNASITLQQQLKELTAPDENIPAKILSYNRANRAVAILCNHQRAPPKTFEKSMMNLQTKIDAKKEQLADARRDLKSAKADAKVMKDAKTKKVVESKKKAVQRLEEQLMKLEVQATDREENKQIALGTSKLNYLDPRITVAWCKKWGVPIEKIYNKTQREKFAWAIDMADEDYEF
Nature of the assay: Inhibition of topoisomerase 1 (unknown origin) assessed as reduction in relaxation of supercoiled DNA at 1 mM using pBR322 plasmid DNA as substrate measured after 30 mins by gel electrophoresis relative to control.

The target of assay [2] is T1, DNA topoisomerase 1 (Homo sapiens). Nature of the assay: Poison activity at topoisomerase 1 (unknown origin) assessed as stabilization of enzyme-DNA cleavage complex by measuring increase in nicked DNA formation at 1 mM using pBR322 DNA as substrate after 30 mins by agarose gel electrophoresis.
Assay [3] shares this target. Nature of the assay: Inhibition of topoisomerase 1 (unknown origin) assessed as DNA intercalation at 1 mM using pBR322 DNA as substrate measured after 30 mins by gel electrophoresis relative to control.

Activity calls are given as the source filed them. The rule behind the calls is not given here.

By inhibition is commonly meant the percentage by which the read-out fell short of the control. For the compound `O=C1CCC[C@H]2[C@H]3CCCN[C@@H]3[C@@H](CCCN3C[C@H]4C[C@H](C3)c3cccc(=O)n3C4)CN12`, the inhibition in assay [1] stood at 58.6%. Besides, the result in assay [2] was Active.

Regarding `O=C1CCC[C@H]2[C@@H]3CCCN[C@H]3[C@H](CCCN3C[C@H]4C[C@H](C3)c3cccc(=O)n3C4)CN12`, the inhibition in assay [1] was found to be 82.3%. Also, the result in assay [2] was Active.

As for `CC[n+]1c(-c2ccccc2)c2cc(N)ccc2c2ccc(N)cc21`, the inhibition entry in assay [3] was “Active”.

For the origin of these results see ChEMBL document CHEMBL5143657, “Discovery, Topo I inhibitory activity and mechanism evaluation of two novel cytisine-type alkaloid dimers from the seeds of Sophora alopecuroides L” (Bioorg Med Chem, 2022).
